Our source for the IC50 values is patent publication US10226451B2, “Substituted bicyclic compounds as bromodomain inhibitors” (ZENITH EPIGENETICS LTD, priority 2013, dated 2019).

For assay [1], the system named is hIL-6 mRNA in U937 cells. Put plainly: Inhibition of hIL-6 mRNA transcription in LPS-stimulated U937 cells. Type of assay: cell-based. As to conditions: Homo sapiens, U-937, PMA-differentiated U937 cells, LPS 1 ug/mL, 3 h, read-out: IL-6 activity. On the procedure: In this example, hIL-6 mRNA in tissue culture cells were quantitated to measure the transcriptional inhibition of hIL-6 when treated with a compound of the present disclosure.
Human leukemic monocyte lymphoma U937 cells (CRL-1593.2) were plated at a density of 3.2×10^4 cells per well in a 96-well plate in 100 μL RPMI-1640 containing 10% FBS and penicillin/streptomycin, and differentiated into macrophages for 3 days in 60 ng/mL PMA ([…]) at 37° C. in 5% CO2 prior to the addition of compound. The cells were pretreated for 1 h with increasing concentrations of test compound in 0.1% DMSO prior to stimulation with 1 ug/mL lipopolysaccharide from Escherichia coli. Triplicate wells were used for each concentration. The cells were incubated at 37° C., 5% CO2 for 3 h before the cells were harvested. At time of harvest, media was removed and cells were rinsed in 200 μL PBS. Cells were harvested using the mRNA Catcher PLUS kit according to manufacturer's instructions. The eluted mRNA was then used in a one-step quantitative real-time PCR reaction using components of the RNA UltraSense™ One-Step Kit (Life Technologies) together with Applied Biosystems TaqMan® primer-probes for hIL-6 and Cyclophilin. Real-time PCR plates were run on a ViiA™7 real time PCR machine (Applied Biosystems), data was analyzed, normalizing the Ct values for hIL-6 to an internal control, prior to determining the fold expression of each sample, relative to the control.

Assay [2] concerns the target T1, Brd4 bromodomain 1 (BRD4(1)) (Homo sapiens, UniProt O60885).
T1 construct: made in house; host or cells: E. coli BL21(DE3)
Put plainly: Inhibition of tetra-acetylated histone H4 binding to Brd4 bromodomain 1 (HTRF/FRET). Conditions: tetra-acetylated histone H4 peptide, His-tagged bromodomain 200 nM, 2 h. On the procedure: Proteins were cloned and overexpressed with a N-terminal 6×His tag, then purified by nickel affinity followed by size exclusion chromatography. Briefly, E. coli BL21(DE3) cells were transformed with a recombinant expression vector encoding N-terminally Nickel affinity tagged bromodomains from Brd2, Brd3, Brd4. Cell cultures were incubated at 37° C. with shaking to the appropriate density and induced overnight with IPTG. The supernatant of lysed cells was loaded onto Ni-IDA column for purification. Eluted protein was pooled, concentrated and further purified by size exclusion chromatography. Fractions representing monomeric protein were pooled, concentrated, aliquoted, and frozen at −80° C. for use in subsequent experiments.
Binding of tetra-acetylated histone H4 and BET bromodomains was confirmed by a Homogenous Time Resolved Fluorescence Resonance Energy Transfer (HTRF®) method. N-terminally His-tagged bromodomains (200 nM) and biotinylated tetra-acetylated histone H4 peptide (25-50 nM, Millipore) were incubated in the presence of Europium Cryptate-labeled streptavidin (Cisbio Cat. #610SAKLB) and XL665-labeled monoclonal anti-His antibody (Cisbio Cat. #61HISXLB) in a white 96 well microtiter plate (Greiner). For inhibition assays, serially diluted test compound was added to these reactions in a 0.2% final concentration of DMSO. Duplicate wells were used for each concentration tested. Final buffer concentrations were 30 mM HEPES pH 7.4, 30 mM NaCl, 0.3 mM CHAPS, 20 mM phosphate pH 7.0, 320 mM KF, 0.08% BSA. After a 2 h incubation at room temperature, fluorescence was measured at 665 and 620 nm with a SynergyH4 plate reader (Biotek). The binding inhibitory activity was shown by a decrease in 665 nm relative to 620 nm fluorescence. IC50 values were determined from a dose response curve.
Background: TR-FRET usually uses a lanthanide donor and a delayed reading to cut background.

Assay [3] relates to Human AML MV-4-11 cells. In words: Inhibition of cell proliferation in MV4-11 cells (CellTiter Aqueous One). In kind it is cell-based. Conditions: 72 h. As for the experimental part:
In this example, cell titer in MV4-11 cells were quantitated to measure the inhibition of proliferation when treated with a compound of the present disclosure.
MV4-11 cells (CRL-9591) were plated at a density of 5×10^4 cells per well in 96 well flat bottom plates and treated with increasing concentrations of test compound or DMSO (0.1%) in IMDM media containing 10% FBS and penicillin/streptomycin. Triplicate wells were used for each concentration and a well containing only media was used as a control. Plates were incubated at 37° C., 5% CO2 for 72 h before adding 20 μL of the CellTiter Aqueous One Solution (Promega) to each well and incubated at 37° C., 5% CO2 for an additional 3-4 h. The absorbance was read at 490 nm in a spectrophotometer and the percentage of cell titer relative to DMSO-treated cells was calculated after correcting for background by subtracting the blank well's signal. IC50 values were calculated using the Graph Pad Prism software.

Assay [4] deals with c-myc in Human AML MV4-11 cells. Put plainly: Inhibition of c-MYC expression (mRNA, real-time PCR) in MV4-11 cells. In kind it is cell-based. As to conditions: 3 h, mRNA by real-time PCR. On the procedure: MV4-11 cells (CRL-9591) were plated at a density of 2.5×10^4 cells per well in 96 well U-bottom plates and treated with increasing concentrations of test compound or DMSO (0.1%) in IMDM media containing 10% FBS and penicillin/streptomycin, and incubated for 3 h at 37° C. Triplicate wells were used for each concentration. Cells were pelleted by centrifugation and harvested using the mRNA Catcher PLUS kit according to manufacturer's instructions. The eluted mRNA isolated was then used in a one-step quantitative real-time PCR reaction, using components of the RNA UltraSense™ One-Step Kit (Life Technologies) together with Applied Biosystems TaqMan® primer-probes for cMYC and Cyclophilin. Real-time PCR plates were run on a ViiA™7 real time PCR machine (Applied Biosystems), data was analyzed, normalizing the Ct values for hMYC to an internal control, prior to determining the fold expression of each sample, relative to the control.

For `Cc1noc(C)c1-c1cc(-c2c(C)nn(C)c2C)c2[nH]c(=S)[nH]c2c1` [Example Compound 23, 6-(3,5-dimethylisoxazol-4-yl)-4-(1,3,5-trimethyl-1H-pyrazol-4-yl)-1H-benzo[d]imidazole-2(3H)-thione], the IC50 in assay [1], in assay [2], in assay [3] and in assay [4] was at most 0.3 µM in each case.

In the case of `Cc1nn(C)c(C)c1Nc1cc(-c2c(C)noc2C)cc2[nH]c(=O)n(C)c12` [Example Compound 26, 5-(3,5-dimethylisoxazol-4-yl)-1-methyl-7-((1,3,5-trimethyl-1H-pyrazol-4-yl)amino)-1H-benzo[d]imidazol-2(3H)-one], the IC50 in assay [1] was 0.3 to 3 µM; in assay [2], at most 0.3 µM; in assay [3], 0.3 to 3 µM; in assay [4], at most 0.3 µM.

As for `Cc1ncccc1Nc1cc(-c2c(C)noc2C)cc2[nH]c(=O)n(C)c12` [Example Compound 27, 5-(3,5-dimethylisoxazol-4-yl)-1-methyl-7-((2-methylpyridin-3-yl)amino)-1H-benzo[d]imidazol-2(3H)-one], the IC50 in assay [1] is at most 0.3 µM; in assay [2], at most 0.3 µM; in assay [3], 0.3 to 3 µM; in assay [4], at most 0.3 µM.

Consider `Cc1ccc(C(N)=O)cc1-c1cc(-c2c(C)noc2C)cc2[nH]c(=O)n(C)c12` [Example Compound 29, 3-(6-(3,5-dimethylisoxazol-4-yl)-3-methyl-2-oxo-2,3-dihydro-1H-benzo[d]imidazol-4-yl)-4-methylbenzamide], for which the IC50 in assay [1] was 0.3 to 3 µM; in assay [2] it was at most 0.3 µM; in assay [3] it was 0.3 to 3 µM; in assay [4], at most 0.3 µM.

For the compound `Cc1ncccc1Oc1cc(-c2c(C)noc2C)cc2[nH]c(=O)n(C)c12` [Example Compound 31, 5-(3,5-dimethylisoxazol-4-yl)-1-methyl-7-((2-methylpyridin-3-yl)oxy)-1H-benzo[d]imidazol-2(3H)-one], the IC50 in assay [1] was at most 0.3 µM; in assay [2], at most 0.3 µM; in assay [3], 0.3 to 3 µM; in assay [4], 0.3 to 3 µM.

Take `Cc1n[nH]c(C)c1-c1cc(-c2c(C)noc2CO)cc2[nH]c(=O)n(C)c12` [Example Compound 32, 7-(3,5-dimethyl-1H-pyrazol-4-yl)-5-(5-(hydroxymethyl)-3-methylisoxazol-4-yl)-1-methyl-1H-benzo[d]imidazol-2(3H)-one]: the IC50 is at most 0.3 µM in assay [1], at most 0.3 µM in assay [2], 0.3 to 3 µM in assay [3] and at most 0.3 µM in assay [4].

For `Cc1noc(C)c1Nc1cc(-c2c(C)noc2C)cc2[nH]c(=O)n(C)c12` [Example Compound 33, 5-(3,5-dimethylisoxazol-4-yl)-7-((3,5-dimethylisoxazol-4-yl)amino)-1-methyl-1H-benzo[d]imidazol-2(3H)-one], the IC50 is 0.3 to 3 µM in assay [1], at most 0.3 µM in assay [2], 0.3 to 3 µM in assay [3] and at most 0.3 µM in assay [4].

For `Cc1noc(C)c1-c1cc(-c2cccc3ccccc23)c2c(c1)[nH]c(=O)n2C` [Example Compound 34, 5-(3,5-dimethylisoxazol-4-yl)-1-methyl-7-(naphthalen-1-yl)-1H-benzo[d]imidazol-2(3H)-one], the IC50 was at most 0.3 µM in assay [1], at most 0.3 µM in assay [2], 0.3 to 3 µM in assay [3] and at most 0.3 µM in assay [4].

Regarding `Cc1cnccc1-c1cc(-c2c(C)noc2C)cc2[nH]c(=O)n(C)c12` [Example Compound 38, 5-(3,5-dimethylisoxazol-4-yl)-1-methyl-7-(3-methylpyridin-4-yl)-1H-benzo[d]imidazol-2(3H)-one], the IC50 in assay [1] was 0.3 to 3 µM; in assay [2], at most 0.3 µM; in assay [3], 0.3 to 3 µM; in assay [4], 0.3 to 3 µM.

As to `Cc1cncc(C)c1-c1cc(-c2c(C)noc2C)cc2[nH]c(=O)n(C)c12` [Example Compound 39, 5-(3,5-dimethylisoxazol-4-yl)-7-(3,5-dimethylpyridin-4-yl)-1-methyl-1H-benzo[d]imidazol-2(3H)-one], the IC50 in assay [1] is at most 0.3 µM; in assay [2], at most 0.3 µM; in assay [3], 0.3 to 3 µM; in assay [4], at most 0.3 µM.

As for `Cc1ccccc1-c1cc(-c2c(C)noc2C)cc2[nH]c(=O)n(C)c12` [Example Compound 40, 5-(3,5-dimethylisoxazol-4-yl)-1-methyl-7-(o-tolyl)-1H-benzo[d]imidazol-2(3H)-one], the IC50 in assay [1] was 0.3 to 3 µM; in assay [2] it was at most 0.3 µM; in assay [3], 0.3 to 3 µM; in assay [4] it was at most 0.3 µM.

`Cc1nc(C)c(-c2cc(-c3c(C)noc3C)cc3[nH]c(=O)n(C)c23)s1` [Example Compound 44, 5-(3,5-dimethylisoxazol-4-yl)-7-(2,4-dimethylthiazol-5-yl)-1-methyl-1H-benzo[d]imidazol-2(3H)-one]: the IC50 fell in the range of 0.3 to 3 µM in assay [1], 0.3 to 3 µM in assay [2], 3 to 30 µM in assay [3] and 0.3 to 3 µM in assay [4].

As to `COc1nc(C)ccc1-c1cc(-c2c(C)noc2C)cc2[nH]c(=O)n(C)c12` [Example Compound 45, 5-(3,5-dimethylisoxazol-4-yl)-7-(2-methoxy-6-methylpyridin-3-yl)-1-methyl-1H-benzo[d]imidazol-2(3H)-one], the IC50 in assay [1] is 0.3 to 3 µM; in assay [2] it was 0.3 to 3 µM; in assay [3], 0.3 to 3 µM; in assay [4] it was at most 0.3 µM.
